pIC50: −log10 of the molar value. Where a name gives a salt, the structure may show the parent alone.
Tests used:
Male SD rats = assay: Atrial effective refractory period (AERP) prolonging effect, atrium electrostimulation model; type: in vivo, rat; settings: anesthetized male SD rats, drug 10 mg/kg/10 min, basic cycle 120 ms, three examples per group
biochemical = assay: biochemical; set-up: species or system Influenza A Virus H1N1
[1] = test system: atrial fibrillation model; settings: described in Patent Document 1 (JP 2012-236814 A); cited from earlier work

Structure (SMILES)	ΔAERP prolongation (Male SD rats)	pIC50 (biochemical)	atrial fibrillation suppression effect [1]
CCC(CC)O[C@@H]1C=C(C(=O)c2cccs2)C[C@H](N)[C@H]1NC(C)=O [Example 1, N-[(1R,2R,6S)-6-amino-2-(1-ethylpropoxy)-4-(thiophene-2-carbonyl)-3-cyclohexen-1-yl]acetamide]	40.0 ms	4.14	–
CCC(CC)O[C@@H]1C=C(C(=O)c2ccc(C)o2)C[C@H](N)[C@H]1NC(C)=O [Example 3, N-[(1R,2R,6S)-6-amino-2-(1-ethylpropoxy)-4-(5-methylfuran-2-carbonyl)-3-cyclohexen-1-yl]acetamide]	14.5 ms	–	–
CCC(CC)O[C@@H]1C=C(C(=O)c2ccc(C)s2)C[C@H](N)[C@H]1NC(C)=O [Example 4, N-[(1R,2R,6S)-6-amino-2-(1-ethylpropoxy)-4-(5-methylthiophene-2-carbonyl)-3-cyclohexen-1-yl]acetamide]	–	4.18	–
CCC(CC)O[C@@H]1C=C(C(=O)c2ccc(F)cc2)C[C@H](N)[C@H]1NC(C)=O [Example 5, N-[(1R,2R,6S)-6-amino-2-(1-ethylpropoxy)-4-(4-fluorobenzoyl)-3-cyclohexen-1-yl]acetamide]	22.0 ms	–	–
CCC(CC)O[C@@H]1C=C(C(=O)c2ccccc2)C[C@H](N)[C@H]1NC(C)=O.Cl [Example 6, N-[(1R,2R,6S)-6-amino-4-benzoyl-2-(1-ethylpropoxy)-3-cyclohexen-1-yl]acetamide hydrochloride]	35.7 ms	4.07	–
CCC(CC)O[C@@H]1C=C(C(=O)Cc2ccccc2)C[C@H](N)[C@H]1NC(C)=O [Example 7, N-[(1R,2R,6S)-6-amino-2-(1-ethylpropoxy)-4-phenylacetyl-3-cyclohexen-1-yl]acetamide]	22.0 ms	–	–
CCC(CC)O[C@@H]1C=C(C(=O)C(C)(C)C)C[C@H](N)[C@H]1NC(C)=O [Example 10, N-[(1R,2R,6S)-6-amino-4-(2,2-dimethylpropionyl)-2-(1-ethylpropoxy)-3-cyclohexen-1-yl]acetamide]	16.0 ms	–	–
CCCCC(=O)C1=C[C@@H](OC(CC)CC)[C@H](NC(C)=O)[C@@H](N)C1.Cl [Example 12, N-[(1R,2R,6S)-6-amino-2-(1-ethylpropoxy)-4-pentanoyl-3-cyclohexen-1-yl]acetamide hydrochloride]	23.0 ms	4.33	–
CCC(CC)O[C@@H]1C=C(C(=O)c2ccccc2)C[C@H](N)[C@H]1NC(=O)c1ccccc1 [Example 16, N-[(1R,2R,6S)-6-amino-4-benzoyl-2-(1-ethylpropoxy)-3-cyclohexen-1-yl]benzamide]	18.7 ms	–	–
CCC(CC)O[C@@H]1C=C(C(=O)c2ccccc2)C[C@H](N)[C@H]1NC(=O)C(C)(C)C [Example 17, N-[(1R,2R,6S)-6-amino-4-benzoyl-2-(1-ethylpropoxy)-3-cyclohexen-1-yl]-2,2-dimethylpropionamide]	39.3 ms	< 3.52	–
CCC(CC)O[C@@H]1C=C(C(=O)c2ccccc2)C[C@H](NC(C)=O)[C@H]1N [Example 18, N-[(1S,5R,6R)-6-amino-3-benzoyl-5-(1-ethylpropoxy)-3-cyclohexen-1-yl]acetamide]	24.0 ms	< 3.52	–
CCC(CC)O[C@@H]1C=C(C(O)c2ccccc2)C[C@H](N)[C@H]1NC(C)=O (stereo partly drawn) [Example 19, N-[(1R,2R,6S)-6-amino-2-(1-ethylpropoxy)-4-(hydroxyphenylmethyl)-3-cyclohexen-1-yl]acetamide]	–	4.06	–
CCC(CC)O[C@@H]1C=C(C(=O)c2cccs2)C[C@H](NC(C)=O)[C@H]1N [Example 21, N-[(1S,5R,6R)-6-amino-5-(1-ethylpropoxy)-3-(thiophene-2-carbonyl)-3-cyclohexen-1-yl]acetamide]	29.5 ms	< 3.52	–
CCOCC1=C[C@@H](OC(CC)CC)[C@H](NC(C)=O)[C@@H](N)C1 [Example 23, N-[(1R,2R,6S)-6-amino-4-ethoxymethyl-2-(1-ethylpropoxy)-3-cyclohexen-1-yl]acetamide]	30.0 ms	4.10	–
CCC(CC)O[C@@H]1CC(C(O)c2ccccc2)C[C@H](N)[C@H]1NC(C)=O (stereo partly drawn) [Example 24, N-[(1R,2S,6R)-2-amino-6-(1-ethylpropoxy)-4-(hydroxyphenylmethyl)cyclohexyl]acetamide]	20.5 ms	< 3.52	–
CCC(CC)O[C@@H]1C=C(C(=O)c2cccs2)C[C@H](N)[C@H]1NC(=O)CC(C)C [Example 25, N-[(1R,2R,6S)-6-amino-2-(1-ethylpropoxy)-4-(thiophene-2-carbonyl)-3-cyclohexen-1-yl]-3-methylbutyramide]	37.7 ms	–	–
CCN[C@@H]1[C@@H](N)CC(C(=O)c2cccs2)=C[C@H]1OC(CC)CC [Example 26, [(3R,4R,5S)-5-amino-4-ethylamino-3-(1-ethylpropoxy)cyclohexen-1-yl]thiophene-2-yl-methanone]	–	< 3.52	–
CCNC(=O)N[C@@H]1[C@@H](N)CC(C(=O)c2cccs2)=C[C@H]1OC(CC)CC [Example 27, [(1R,2R,6S)-6-amino-2-(1-ethylpropoxy)-4-(thiophene-2-carbonyl)cyclohexen-3-yl]-3-ethylurea]	56.0 ms	< 3.52	–
CCCCCCC(=O)C1=C[C@@H](OC(CC)CC)[C@H](NC(C)=O)[C@@H](N)C1 [Example 28, N-[(1R,2R,6S)-6-amino-2-(1-ethylpropoxy)-4-heptanoyl-3-cyclohexen-1-yl]acetamide]	–	4.61	–
CCC(CC)O[C@@H]1C=C(C(=O)c2ccc(OC)s2)C[C@H](N)[C@H]1NC(C)=O [Example 30, N-[(1R,2R,6S)-6-amino-2-(1-ethylpropoxy)-4-(5-methoxythiophene-2-carbonyl)-3-cyclohexen-1-yl]acetamide hydrochloride]	–	4.97	–
CCOC(=O)C1=C[C@@H](OC(CC)CC)[C@H](NC(C)=O)[C@@H](N)C1 [Oseltamivir, reference compound]	15.7 ms	–	has an atrial fibrillation suppression effect

Reference: US9950989B2, “Cyclic hydrocarbon compound” (TOA EIYO LTD., priority 2014, dated 2018)
